Assay results from PubChem BioAssay (NCI).
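Compound exposure: 48 hours, 5 concentrations, 96-well plates. TGI is the concentration that stops growth completely.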

How the values were obtained:
Assay in all cases: DTP human tumour cell line panel, 48 h
[1] = test system: OVCAR-3 ovarian
[2] = test system: SK-OV-3 ovarian
[3] = test system: NCI-H522 lung
[4] = test system: DMS 273 small cell lung
[5] = test system: HOP-18 NSCLC
[6] = test system: HCT-15 colon
[7] = test system: UACC-62 melanoma
[8] = test system: SW-620 colon
[9] = test system: SN12C renal
[10] = test system: MOLT-4 leukemia
[11] = test system: SNB-19 CNS
[12] = test system: OVCAR-8 ovarian
[13] = test system: SF-295 CNS
[14] = test system: U251 CNS
[15] = test system: DLD-1 colon
[16] = test system: HT29 colon
[17] = test system: CCRF-CEM leukemia
[18] = test system: IGROV1 ovarian
[19] = test system: UACC-257 melanoma
[20] = test system: SK-MEL-2 melanoma
[21] = test system: EKVX NSCLC
[22] = test system: SF-539 CNS
[23] = test system: DMS 114 small cell lung
[24] = test system: M14 melanoma
[25] = test system: 786-0 renal
[26] = test system: ACHN renal
[27] = test system: NCI-H460 lung
[28] = test system: UO-31 renal
[29] = test system: COLO 205 colon
[30] = test system: XF 498 CNS
[31] = test system: NCI-H23 lung
[32] = test system: HOP-62 NSCLC
[33] = test system: MALME-3M melanoma
[34] = test system: SK-MEL-28 melanoma
[35] = test system: SNB-75 CNS
[36] = test system: M19-MEL melanoma
[37] = test system: HCT-116 colon
[38] = test system: A549 NSCLC
[39] = test system: RXF 393 renal
[40] = test system: KM12 colon
[41] = test system: K-562 leukemia
[42] = test system: NCI-H226 lung
[43] = test system: RPMI-8226 leukemia
[44] = test system: TK-10 renal
[45] = test system: SK-MEL-5 melanoma
[46] = test system: HL-60(TB) leukemia
[47] = test system: LOX IMVI melanoma
[48] = test system: OVCAR-4 ovarian
[49] = test system: CAKI-1 renal
[50] = test system: SNB-78 CNS
[51] = test system: HCC-2998 colon
[52] = test system: OVCAR-5 ovarian
[53] = test system: SR leukemia
[54] = test system: LXFL 529 NSCLC
[55] = test system: KM20L2 colon
[56] = test system: HOP-92 NSCLC
[57] = test system: SF-268 CNS
[58] = test system: A498 renal

COC1(OC)CC2C(=O)N(Cc3ccccc3)C1CC2S(=O)(=O)c1ccccc1 (configuration not stated)
TGI [1]: > 100 µM
TGI [2]: > 100 µM
TGI [3]: > 100 µM
TGI [4]: > 100 µM
TGI [5]: > 100 µM
TGI [6]: > 100 µM
TGI [7]: > 100 µM
TGI [8]: > 100 µM
TGI [9]: > 100 µM
TGI [10]: > 100 µM
TGI [11]: > 100 µM
TGI [12]: > 100 µM
TGI [13]: > 100 µM
TGI [14]: > 100 µM
TGI [15]: > 100 µM
TGI [16]: > 100 µM
TGI [17]: > 100 µM
TGI [18]: > 100 µM
TGI [19]: > 100 µM
TGI [20]: > 100 µM
TGI [21]: > 100 µM
TGI [22]: > 100 µM
TGI [23]: > 100 µM
TGI [24]: > 100 µM
TGI [25]: > 100 µM
TGI [26]: > 100 µM
TGI [27]: > 100 µM
TGI [28]: > 100 µM
TGI [29]: > 100 µM
TGI [30]: 98.7 µM
TGI [31]: > 100 µM
TGI [32]: > 100 µM
TGI [33]: > 100 µM
TGI [34]: > 100 µM
TGI [35]: > 100 µM
TGI [36]: > 100 µM
TGI [37]: > 100 µM
TGI [38]: > 100 µM
TGI [39]: > 100 µM
TGI [40]: > 100 µM
TGI [41]: > 100 µM
TGI [42]: > 100 µM
TGI [43]: > 100 µM
TGI [44]: > 100 µM
TGI [45]: > 100 µM
TGI [46]: > 100 µM
TGI [47]: > 100 µM

CN(C)c1nc(N(C)C)n2nc(-c3ccccc3[N+](=O)[O-])nc2n1
TGI [1]: > 100 µM
TGI [2]: > 100 µM
TGI [3]: > 100 µM
TGI [4]: > 100 µM
TGI [5]: > 100 µM
TGI [6]: 31.3 µM
TGI [7]: > 100 µM
TGI [48]: > 100 µM
TGI [8]: 24.2 µM
TGI [9]: > 100 µM
TGI [49]: > 100 µM
TGI [10]: > 100 µM
TGI [11]: > 100 µM
TGI [12]: > 100 µM
TGI [13]: > 100 µM
TGI [50]: > 100 µM
TGI [14]: > 100 µM
TGI [15]: > 100 µM
TGI [16]: > 100 µM
TGI [17]: > 100 µM
TGI [51]: > 100 µM
TGI [18]: > 100 µM
TGI [19]: > 100 µM
TGI [20]: > 100 µM
TGI [52]: > 100 µM
TGI [21]: > 100 µM
TGI [22]: > 100 µM
TGI [23]: > 100 µM
TGI [24]: > 100 µM
TGI [25]: > 100 µM
TGI [26]: > 100 µM
TGI [27]: > 100 µM
TGI [28]: > 100 µM
TGI [53]: > 100 µM
TGI [29]: > 100 µM
TGI [30]: > 100 µM
TGI [54]: > 100 µM
TGI [31]: > 100 µM
TGI [55]: > 100 µM
TGI [32]: > 100 µM
TGI [33]: > 100 µM
TGI [34]: > 100 µM
TGI [56]: > 100 µM
TGI [35]: > 100 µM
TGI [36]: > 100 µM
TGI [37]: 89.2 µM
TGI [38]: > 100 µM
TGI [39]: > 100 µM
TGI [57]: > 100 µM
TGI [40]: > 100 µM
TGI [41]: > 100 µM
TGI [42]: > 100 µM
TGI [43]: > 100 µM
TGI [44]: > 100 µM
TGI [45]: > 100 µM
TGI [46]: > 100 µM
TGI [58]: > 100 µM
TGI [47]: > 100 µM

O=C(O)c1ccc(N=Nc2cc(S(=O)(=O)O)c3cccnc3c2O)cc1
TGI [1]: > 100 µM
TGI [2]: > 100 µM
TGI [4]: > 100 µM
TGI [6]: > 100 µM
TGI [48]: > 100 µM
TGI [8]: > 100 µM
TGI [9]: > 100 µM
TGI [49]: > 100 µM
TGI [10]: > 100 µM
TGI [11]: > 100 µM
TGI [12]: > 100 µM
TGI [13]: > 100 µM
TGI [50]: > 100 µM
TGI [14]: > 100 µM
TGI [15]: > 100 µM
TGI [16]: > 100 µM
TGI [51]: > 100 µM
TGI [18]: > 100 µM
TGI [19]: > 100 µM
TGI [20]: > 100 µM
TGI [52]: > 100 µM
TGI [21]: > 100 µM
TGI [22]: > 100 µM
TGI [23]: > 100 µM
TGI [25]: > 100 µM
TGI [26]: > 100 µM
TGI [27]: > 100 µM
TGI [28]: > 100 µM
TGI [53]: > 100 µM
TGI [29]: > 100 µM
TGI [30]: > 100 µM
TGI [31]: > 100 µM
TGI [55]: > 100 µM
TGI [32]: > 100 µM
TGI [33]: > 100 µM
TGI [34]: > 100 µM
TGI [56]: > 100 µM
TGI [35]: > 100 µM
TGI [36]: > 100 µM
TGI [37]: > 100 µM
TGI [38]: > 100 µM
TGI [39]: > 100 µM
TGI [57]: > 100 µM
TGI [40]: > 100 µM
TGI [41]: > 100 µM
TGI [42]: > 100 µM
TGI [43]: > 100 µM
TGI [44]: > 100 µM
TGI [45]: > 100 µM
TGI [46]: > 100 µM
TGI [58]: > 100 µM
TGI [47]: > 100 µM
